Measured values published in patent publication US7648997B2, “Hydroxylamine substituted imidazoquinolines” (Coley Pharmaceutical Group, Inc., priority 2003, dated 2010).

| melting point [°C] | SMILES |
| --- | --- |
| 145 to 148 | CCCc1nc2c(N)nc3ccccc3c2n1CCCON [Example 1, 1-[3-(Aminooxy)propyl]-2-propyl-1H-imidazo[4,5-c]quinolin-4-amine] |
| 103 to 105 | CCCc1nc2c(N)nc3ccccc3c2n1CCCONC(=O)C1CC1 [Example 2, N-[3-(4-Amino-2-propyl-1H-imidazo[4,5-c]quinolin-1-yl)propoxy]cyclopropanecarboxamide] |
| 115 to 117 | CCCCc1nc2c(N)nc3ccccc3c2n1CCCCONC(C)C [Example 72, 2-Butyl-1-{4-[(isopropylamino)oxy]butyl}-1H-imidazo[4,5-c]quinolin-4-amine] |
| 125 to 127 | CCCc1nc2c(N)nc(C)c(C)c2n1CCCONC(C)c1ccccc1 (centres unmarked) [Example 129, 6,7-Dimethyl-1-(3-{[(1-phenylethyl)amino]oxy}propyl)-2-propyl-1H-imidazo[4,5-c]pyridin-4-amine] |
| 147 to 150 | CCCc1nc2c(N)nc3ccccc3c2n1CCCONC(C)C [Example 130, 1-{3-[(Isopropylamino)oxy]propyl}-2-propyl-1H-imidazo[4,5-c]quinolin-4-amine] |
| 176 to 178 | CCCc1nc2c(N)nc3cc(Br)ccc3c2n1CCCONC(=O)C(C)C [Example 137, N-[3-(4-Amino-7-bromo-2-propyl-1H-imidazo[4,5-c]quinolin-1-yl)propoxy]-2-methylpropanamide] |
| 169 to 171 | CCCc1nc2c(N)nc3cc(-c4ccccc4)ccc3c2n1CCCONC(=O)C(C)C [Example 138, N-[3-(4-Amino-7-phenyl-2-propyl-1H-imidazo[4,5-c]quinolin-1-yl)propoxy]-2-methylpropanamide] |
| 142 to 144 | CCOCc1nc2c(N)nc3cc(-c4ccccc4)cnc3c2n1CCCONC(C)C [Example 139, 2-(Ethoxymethyl)-1-{3-[(isopropylamino)oxy]propyl}-7-phenyl-1H-imidazo[4,5-c][1,5]naphthyridin-4-amine] |
